Measured values published in PubChem BioAssay (NCI).
Where “and” joins values, the source holds several entries; their conditions need not be identical. Equal entries are not always repeated.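 Dose response: 5 concentrations. Exposure: 48 h. Format: 96-well plates. Endpoint: linear interpolation; highest concentration if not reached. The concentration for 50% growth inhibition is given as GI50. TGI: total growth inhibition.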

How the values were obtained:
Assay in all cases: growth of human tumour cells (NCI), 48 h
EKVX NSCLC = tested on: EKVX NSCLC
COLO 205 colon = tested on: COLO 205 colon
UACC-257 melanoma = tested on: UACC-257 melanoma
OVCAR-4 ovarian = tested on: OVCAR-4 ovarian
RXF 393 renal = tested on: RXF 393 renal
A498 renal = tested on: A498 renal
NCI-H522 lung = tested on: NCI-H522 lung
RPMI-8226 leukemia = tested on: RPMI-8226 leukemia
ACHN renal = tested on: ACHN renal
SR leukemia = tested on: SR leukemia

SMILES | TGI (EKVX NSCLC) | TGI (COLO 205 colon) | TGI (UACC-257 melanoma) | TGI (OVCAR-4 ovarian) | TGI (RXF 393 renal) | TGI (A498 renal) | TGI (NCI-H522 lung) | TGI (RPMI-8226 leukemia) | TGI (ACHN renal) | TGI (SR leukemia) | GI50 (EKVX NSCLC) | GI50 (COLO 205 colon) | GI50 (UACC-257 melanoma) | GI50 (OVCAR-4 ovarian) | GI50 (RXF 393 renal) | GI50 (A498 renal) | GI50 (NCI-H522 lung) | GI50 (RPMI-8226 leukemia) | GI50 (ACHN renal) | GI50 (SR leukemia)
O=c1oc2ccccc2c2c1Sc1ccccc1N2 | > 100 µM | > 100 µM | > 100 µM | > 100 µM | > 100 µM | > 100 µM | > 100 µM | > 100 µM | > 100 µM | > 100 µM |  |  |  |  |  |  |  |  |  | 
CN(C)c1cc2ccccc2oc1=O | > 100 µM | > 100 µM | > 100 µM | > 100 µM | > 100 µM | > 100 µM | > 100 µM | > 100 µM | > 100 µM | > 100 µM |  |  |  |  |  |  |  |  |  | 
O=C1CC(CC(=O)C2CCCCC2=O)C(=O)N1 (stereo not drawn) | > 100 µM | > 100 µM | > 100 µM | > 100 µM | > 100 µM | > 100 µM | > 100 µM | > 100 µM | > 100 µM | > 100 µM |  |  |  |  |  |  |  |  |  | 
Cn1ccnc1CCc1c(Cl)cccc1Cl |  | > 100 µM | > 100 µM | > 100 µM | > 100 µM | > 100 µM | > 100 µM | > 100 µM | > 100 µM | > 100 µM |  |  |  |  |  |  |  |  |  | 
CN(C)CCNC(=O)Cn1ccc(=O)c2cc([N+](=O)[O-])ccc21 | > 100 µM | > 100 µM | > 100 µM |  | > 100 µM | > 100 µM | > 100 µM | > 100 µM | > 100 µM | > 100 µM |  |  |  |  |  |  |  |  |  | 
COc1cc(C)ccc1C(=O)c1ccc(C)cc1OC | > 100 µM | 9.34 µM | > 100 µM | > 100 µM | 4.53 µM | 39.6 µM | 4.96 µM | 27.7 µM | > 100 µM | > 100 µM | 5.29 µM | 2.55 µM | 54.8 µM | 45.1 µM | 1.66 µM | 1.24 µM | 1.76 µM | 3.7 µM | 8.21 µM | 0.567 µM
N=C1C(O)C2(I)c3ccccc3N3C(=N)C(O)C4c5ccccc5N1C4C32 (stereo not drawn) | > 100 µM | > 100 µM | > 100 µM | 30.1 µM | > 100 µM | > 100 µM | > 100 µM | > 100 µM | > 100 µM | > 100 µM |  |  |  |  |  |  |  |  |  | 
Cn1ncc(-c2ccc3c(=O)[nH]nc(CN)c3c2)c1-c1c(F)c(Cl)cc(OC2CC2)c1C#N | 30.5 µM and 29.6 µM | 26.9 µM and 25.1 µM | 28.4 µM and 29.4 µM | 29.1 µM and 26.2 µM | 21.4 µM and 12.9 µM | 29.8 µM and 27.5 µM | 27.4 µM and 23.1 µM | 47.5 µM and 47.8 µM | 30.5 µM and 28.9 µM | 34.8 µM and 41 µM | 14.9 µM and 14 µM | 11.8 µM and 10.9 µM | 13.9 µM and 14.1 µM | 14.5 µM and 12.6 µM | 6.22 µM and 2.24 µM | 16 µM and 14.3 µM | 12.7 µM and 9.22 µM | 14.9 µM and 16 µM | 15.8 µM and 15.3 µM | 13.1 µM and 12.3 µM
Cc1c2cnccc2c(C)c2c1c1cc(C#N)ccc1n2C | 0.624 µM | 1.08 µM | 0.788 µM | 0.988 µM | 0.393 µM | 0.285 µM | 0.817 µM | 0.907 µM | 0.456 µM | 3.06 µM | 0.219 µM | 0.18 µM | 0.207 µM | 0.245 µM | 0.128 µM | 0.11 µM | 0.167 µM | 0.202 µM | 0.0457 µM | 0.0588 µM
